Our source for the cytotoxicity values is ChEMBL document CHEMBL3507680, “University of Dundee, Gates Library screen for HepG2 cell viability”.

The series is described as follows: Human HepG2 cell viability assay in 384 well format. The settings on record: HepG2 cells, read-out: Inhibition. Set-up: dose 125 nL, time 70.5 hour; concentration not given beside the values. Type of series: toxicity, cell-based.
Turning to `CC(Cn1cccn1)NC(=O)NCCc1cccnc1` (stereo not given), the cytotoxicity at 70.5 h is -8.85%.

For the compound `Cc1csc(CCNC(=O)NC(C)Cn2cccn2)n1` (stereo not given), the cytotoxicity at 70.5 h worked out at 19%.

As to `Cc1cccc(CN(C(=O)NCc2ccccn2)C2CC2)c1`, the cytotoxicity at 70.5 h was -8.28%.

Take `CC(Cn1cccn1)NC(=O)NCCc1ccsc1` (stereo not given): the cytotoxicity at 70.5 h stood at 15.4%.

For `CS(=O)(=O)c1ccc(CNC(=O)Nc2cn[nH]c2)cc1`, the cytotoxicity at 70.5 h was -12.4%.

Take `Cn1cc(NS(=O)(=O)c2ccc3c(c2)CCCC3)ccc1=O`: the cytotoxicity at 70.5 h is 22.1%.

As to `CCOc1ccc2c(c1)CN(Cc1nc3c(cnn3C)c(=O)[nH]1)CC2`, the cytotoxicity at 70.5 h was -4.82%.

Regarding `Cc1cc(C2CCCN2Cc2nc3c(cnn3C)c(=O)[nH]2)on1` (stereo not given), the cytotoxicity at 70.5 h is -8.83%.

Take `COC(=O)c1ccc(N2CCN(C(=O)c3cnc(C)cn3)C(C)C2)cc1` (stereo not given): the cytotoxicity at 70.5 h was -11%.

Take `COC(=O)c1ccc(N2CCN(C(=O)c3cccnc3)C(C)C2)cc1` (stereo not given): the cytotoxicity at 70.5 h was -4.39%.

Consider `Cc1ccccc1C1CCCN1Cc1nc2c(cnn2C)c(=O)[nH]1` (stereo not given), for which the cytotoxicity at 70.5 h is -9.08%.

With `CNS(=O)(=O)c1ccc(CNC(=O)Nc2cn[nH]c2)cc1`, the cytotoxicity at 70.5 h is -5.63%.

On to `Cn1ncc2c(=O)[nH]c(CN3CCCC3c3ccsc3)nc21` (stereo not given), for which the cytotoxicity at 70.5 h was -7.44%.

In the case of `CCn1cnnc1C1CCN(C(=O)c2cc(C)c(C)s2)CC1`, the cytotoxicity at 70.5 h worked out at 15.5%.

Take `CCn1cnnc1C1CCN(C(=O)c2cc3c(s2)CCCC3)CC1`: the cytotoxicity at 70.5 h is -9.56%.

On to `COC(=O)c1ccc(N2CCN(C(=O)c3cc(C)no3)C(C)C2)cc1` (stereo not given), for which the cytotoxicity at 70.5 h is -12%.

Take `Cc1nc(CN2CCCC(NCc3ccc(C(N)=O)cc3)C2)no1` (stereo not given): the cytotoxicity at 70.5 h was -4.31%.

In the case of `Cc1cc(NC(=O)CNC2CCc3ncnn3C2)no1` (stereo not given), the cytotoxicity at 70.5 h is -18.6%.

`CCc1nc2n(n1)CC(NCCC(=O)Nc1cc(C)on1)CC2` (stereo not given): the cytotoxicity at 70.5 h was -6.35%.

For `Cc1nc2n(n1)CC(NCCC(=O)Nc1cc(C)on1)CC2` (stereo not given), the cytotoxicity at 70.5 h is -6.62%.

Regarding `CN(C)c1cc2c(nn1)CCN(C(=O)C1CCCc3ccccc31)C2` (stereo not given), the cytotoxicity at 70.5 h was -8.02%.

Turning to `COc1cc(CNC(=O)N(Cc2ccc(F)cc2F)C2CC2)ccn1`, the cytotoxicity at 70.5 h was -12.9%.

Take `Nc1cc2c(nn1)CCN(C(=O)C1CCc3ccccc31)C2` (stereo not given): the cytotoxicity at 70.5 h is -11.2%.

Regarding `Cc1cc(CNC(=O)N(Cc2ccc(F)cc2F)C2CC2)no1`, the cytotoxicity at 70.5 h is 15.5%.

In the case of `Cc1cc(NC(=O)CN2CCC(N(C)Cc3ncc(C)o3)C2)n(C)n1` (stereo not given), the cytotoxicity at 70.5 h stood at 16.2%.

Consider `CCCN(C)CCC(=O)N1CCCC1Cn1cccn1` (stereo not given), for which the cytotoxicity at 70.5 h turned out to be 15.3%.

Consider `CC(C(=O)NCCOc1ccccc1)n1cncn1` (stereo not given), for which the cytotoxicity at 70.5 h was -12.5%.

For `N#Cc1ccc(OCC(O)CN2CCC(c3ccn[nH]3)CC2)cc1` (stereo not given), the cytotoxicity at 70.5 h was -14.4%.

Regarding `NC(=O)CN1CCCN(C(=O)CCOc2ccccc2Cl)CC1`, the cytotoxicity at 70.5 h is -6.92%.

As to `c1cncc(-c2noc(CN3CCCC(Cn4cncn4)C3)n2)c1` (stereo not given), the cytotoxicity at 70.5 h came to 9.23%.

For `c1ccc(-c2noc(CN3CCCC(Cn4cncn4)C3)n2)nc1` (stereo not given), the cytotoxicity at 70.5 h was -11.5%.

For the compound `Cc1ccc(C)c(OCCC(=O)N2CCCN(CC(N)=O)CC2)c1`, the cytotoxicity at 70.5 h is -7.33%.

As for `Cc1ccc(-c2noc(CN3CCCC(Cn4cncn4)C3)n2)cc1` (stereo not given), the cytotoxicity at 70.5 h is -1.78%.

In the case of `CC(C)(C)C(O)CN1CCN(C(=O)c2ccc3c(c2)COC3)CC1` (stereo not given), the cytotoxicity at 70.5 h is 10.4%.

For the compound `Cc1cnn(CCNCC(O)COc2ccc(Cl)cc2Cl)c1` (stereo not given), the cytotoxicity at 70.5 h is -2.81%.

For `Cc1cnn(CCNCC(O)COc2cc(Cl)ccc2Cl)c1` (stereo not given), the cytotoxicity at 70.5 h is -14.6%.

Turning to `Cc1cnn(CCNCC(O)COc2ccc3ccccc3c2)c1` (stereo not given), the cytotoxicity at 70.5 h is -0.298%.

Regarding `CCc1noc(C)c1C(=O)N1CCCC1c1c(C)nn(C)c1C` (stereo not given), the cytotoxicity at 70.5 h was -1.9%.

On to `CC(C(=O)NCC(F)(F)F)N1CCC(N2CCN(C)C2=O)CC1` (stereo not given), for which the cytotoxicity at 70.5 h is -8.46%.

Regarding `CCCc1noc(CCC(=O)N2CCCC2c2cccs2)n1` (stereo not given), the cytotoxicity at 70.5 h was -2.53%.
